Results as given in patent US20240140944A1, “NOVEL NAPHTHYRIDINONE DERIVATIVE HAVING INHIBITORY ACTIVITY AGAINST ECTONUCLEOTIDE PYROPHOSPHATASE-PHOSPHODIESTERASE AND USE THEREOF” (TXINNO BIOSCIENCE INC., priority 2020, published 2024).
Where a name gives a salt, the structure may show the parent alone.

target: T1, human recombinant ENPP1 enzymes (Homo sapiens, UniProt P22413); assay: ENPP1 Enzyme Assay with cGAMP Substrate (AMP-Glo); assay type: biochemical; conditions: human recombinant ENPP1 3 ng/reaction, cGAMP 5 μM, 37° C. 90 minutes, average of two or more tests; read-out: Enzymatic activity IC50
T1 construct: purchased R & D systems
T1 sequence (P22413 1-925): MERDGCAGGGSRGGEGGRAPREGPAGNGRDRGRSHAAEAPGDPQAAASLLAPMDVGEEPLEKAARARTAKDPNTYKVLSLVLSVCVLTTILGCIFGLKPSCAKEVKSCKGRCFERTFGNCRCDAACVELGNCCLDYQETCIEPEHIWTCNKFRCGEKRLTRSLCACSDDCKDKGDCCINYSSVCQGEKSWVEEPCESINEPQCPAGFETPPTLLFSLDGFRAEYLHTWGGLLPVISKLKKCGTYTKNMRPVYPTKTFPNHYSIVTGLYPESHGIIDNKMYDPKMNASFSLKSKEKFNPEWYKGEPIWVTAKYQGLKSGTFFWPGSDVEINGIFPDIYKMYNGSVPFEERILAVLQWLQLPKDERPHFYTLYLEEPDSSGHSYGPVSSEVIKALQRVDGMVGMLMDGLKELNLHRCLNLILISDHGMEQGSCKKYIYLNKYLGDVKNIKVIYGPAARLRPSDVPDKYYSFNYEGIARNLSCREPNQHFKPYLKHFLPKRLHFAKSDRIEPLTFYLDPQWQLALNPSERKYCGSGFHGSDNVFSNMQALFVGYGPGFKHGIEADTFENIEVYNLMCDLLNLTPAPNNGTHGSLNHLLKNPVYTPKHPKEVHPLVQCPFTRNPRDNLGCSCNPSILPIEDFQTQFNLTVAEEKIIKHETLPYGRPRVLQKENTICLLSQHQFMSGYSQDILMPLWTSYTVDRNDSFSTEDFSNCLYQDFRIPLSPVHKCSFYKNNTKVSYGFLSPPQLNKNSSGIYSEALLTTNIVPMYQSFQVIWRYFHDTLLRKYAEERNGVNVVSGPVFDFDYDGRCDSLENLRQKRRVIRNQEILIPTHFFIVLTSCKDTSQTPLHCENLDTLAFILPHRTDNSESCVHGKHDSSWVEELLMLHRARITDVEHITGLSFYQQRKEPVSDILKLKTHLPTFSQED
Description: ENPP1 hydrolyzes nucleotides or nucleotide derivatives to produce nucleoside-5′-monophosphate and pyrophosphate. In addition, ENPP1 hydrolyzes 2′,3′-cGAMP to produce 5′-adenosine monophosphate (AMP) and 5′-guanosine monophosphate (GMP). AMP produced from the reaction is measured using the AMP-Glo® kit (Promega). The AMP-Glo® kit contains two reagents. The first reagent terminates the AMP-producing enzymatic reaction, removes ATP and converts the produced AMP into ADP. The second reagent converts ADP to ATP which is used to generate luminescence in the luciferase reaction. The amount of luminescence measured is proportional to the amount of AMP produced by ENPP1.
The final reaction mixture contains 50 mM Tris (pH 8.5) buffer, 250 mM NaCl, 0.5 mM CaCl2), 1 μM ZnCl2, 5% glycerol and 1% DMSO. Serially diluted ENPP1 inhibitors (typically in the range of 10 μM to 0.5 nM) were pre-stored with human recombinant ENPP1 enzymes (R & D systems) at 3 ng/reaction and room temperature (RT) for 5 to 10 minutes. The reaction was initiated by addition of cGAMP (at a final concentration of 5 μM) and reacted at 37° C. for 90 minutes. At the end of the reaction, 10 μl of the AMP-Glo first reagent was added to stop the reaction and the result was stored at room temperature for 1 hour. After storage, 20 μl of an AMP detection solution (a mixture of AMP-Glo II reagent and Kinase-Glo at a ratio of 1:100) was added and stored at room temperature for 1 hour. Luminescence signals were measured using a Victor® plate reader (Perkin Elmer). The maximal activity control (containing enzymes and substrates in the presence of 1% DMSO; MAX) and the minimal activity control (containing substrates and 1% DMSO; MIN) were evaluated simultaneously. In each experiment, serially diluted reference ENPP1 inhibitors were tested as well. IC50, indicating % residual activity versus compound concentration was determined by fitting inhibition curves using the 3-parameter analysis of GraphPad Prism® software. Serially diluted samples of one compound were tested two or more times and an average IC50 of each compound was calculated.

SMILES	IC50 [nM]
NCc1cccc(Nc2ccnc3[nH]c(=O)ccc23)c1 [Example 77, 5-((3-aminomethyl)phenyl)amino)-1,8-naphthyridin-2(1H)-one dihydrochloride]	< 1000
CC(C)(C)OC(=O)Nc1cccc(-c2ccnc3[nH]c(=O)ccc23)c1 [Example 1, tert-butyl(3-(7-oxo-7,8-dihydro-1,8-naphthyridin-4-yl)phenyl)carbamate]	1000 to 10000
Nc1ccc(Nc2ccnc3[nH]c(=O)ccc23)cc1 [Example 81, 5-((4-aminophenyl)amino)-1,8-naphthyridin-2(1H)-one dihydrochloride]	< 1000
NS(=O)(=O)N1CCCN(c2ccnc3[nH]c(=O)ccc23)CC1 [Example 127]	1000 to 10000
CC(C)(C)OC(=O)NS(=O)(=O)NCc1ccc(-c2ccnc3[nH]c(=O)ccc23)cc1 [Example 32, tert-butyl(N-(4-(7-oxo-7,8-dihydro-1,8-naphthyridin-4-yl)benzyl)sulfamoyl)carbamate]	< 1000
O=c1ccc2c(Nc3ccc4c(c3)CNC4)ccnc2[nH]1 [Example 84, dihydrochloride]	< 1000
C[C@@H](NS(N)(=O)=O)c1ccc(-c2ccnc3[nH]c(=O)ccc23)cc1F [Example 48, (R)-(N-(1-(2-fluoro-4-(7-oxo-7,8-dihydro-1,8-naphthyridin-4-yl)phenyl)ethyl)sulfamide hydrochloride]	< 1000
NCC1CCN(c2ccnc3[nH]c(=O)ccc23)CC1 [Example 114, 5-(4-(aminomethyl)piperidin-1-yl)-1,8-naphthyridin-2(1H)-one hydrochloride]	< 1000
O=c1ccc2c(-c3ccc(CP(=O)(O)O)cc3)ccnc2[nH]1 [Example 75, (4-(7-oxo-7,8-dihydro-1,8-naphthyridin-4-yl)benzyl)phosphonic acid]	< 1000
NS(=O)(=O)NC1CCN(c2ccnc3[nH]c(=O)ccc23)CC1 [Example 123, N-(1-(7-oxo-7,8-dihydro-1,8-naphthyridin-4-yl)piperidin-4-yl)sulfamide]	< 1000
CN(Cc1ccc(-c2ccnc3[nH]c(=O)ccc23)cc1)S(N)(=O)=O [Example 50, N-methyl-N-(4-(7-oxo-7,8-dihydro-1,8-naphthyridin-4-yl)benzyl)sulfamide hydrochloride]	< 1000
CCN(Cc1ccc(-c2ccnc3[nH]c(=O)ccc23)cc1)S(N)(=O)=O [Example 51, N-ethyl-N-(4-(7-oxo-7,8-dihydro-1,8-naphthyridin-4-yl)benzyl)sulfamide hydrochloride]	< 1000
CC(C)N(Cc1ccc(-c2ccnc3[nH]c(=O)ccc23)c(F)c1)S(N)(=O)=O [Example 57, N-(3-fluoro-4-(7-oxo-7,8-dihydro-1,8-naphthyridin-4-yl)benzyl)-N-isopropyl)sulfamide hydrochloride]	> 10000
C[C@H](c1ccc(-c2ccnc3[nH]c(=O)ccc23)cc1)N(C)S(N)(=O)=O [Example 59, (R)-(N-methyl-N-(1-(4-(7-oxo-7,8-dihydro-1,8-naphthyridin-4-yl)phenyl)ethyl)sulfamide hydrochloride]	< 1000
O=c1ccc2c(-c3ccc4c(c3)CNCC4)ccnc2[nH]1 [Example 27, 5-(1,2,3,4-tetrahydroisoquinolin-7-yl)-1,8-naphthyridin-2(1H)-one hydrochloride]	1000 to 10000
NS(=O)(=O)N1CCc2cc(F)c(-c3ccnc4[nH]c(=O)ccc34)cc2C1 [Example 66, 6-fluoro-7-(7-oxo-7,8-dihydro-1,8-naphthyridin-4-yl)-3,4-dihydroisoquinoline-2(1H)-sulfamide hydrochloride]	< 1000

SMILES	IC50 [nM]
NS(=O)(=O)Nc1ccc(-c2ccnc3[nH]c(=O)ccc23)cc1 [Example 39, N-(4-(7-oxo-7,8-dihydro-1,8-naphthyridin-4-yl)phenyl)sulfamide]	1000 to 10000
NCc1cc(Nc2ccnc3[nH]c(=O)ccc23)ccc1F [Example 78, 5-((3-aminomethyl)-4-fluorophenyl)amino)-1,8-naphthyridin-2(1H)-one dihydrochloride]	< 1000
CC(C)(C)OC(=O)NCc1ccc(-c2ccnc3[nH]c(=O)ccc23)cc1 [Example 3, tert-butyl(4-(7-oxo-7,8-dihydro-1,8-naphthyridin-4-yl)benzyl)carbamate]	1000 to 10000
Nc1cccc(-c2ccnc3c2CCC(=O)N3)c1 [Example 131, 5-(3-(aminophenyl)-3,4-dihydro-1,8-naphthyridin-2(1H)-one hydrochloride]	1000 to 10000
NCCC1CCN(c2ccnc3[nH]c(=O)ccc23)CC1 [Example 115, 5-(4-(2-aminoethyl)piperidin-1-yl)-1,8-naphthyridin-2(1H)-one hydrochloride]	< 1000
NS(=O)(=O)N1CCCc2ccc(Nc3ccnc4[nH]c(=O)ccc34)cc2C1 [Example 103, (8-((7-oxo-7,8-dihydro-1,8-naphthyridin-4-yl)amino)-1,3,4,5-tetrahydro-2 (1H)-benzo[c]azepin-2-yl)sulfamide dihydrochloride]	1000 to 10000
NS(=O)(=O)NCc1ccc(Nc2ccnc3[nH]c(=O)ccc23)c(Cl)c1 [Example 100, N-(3-chloro-4-((7-oxo-7,8-dihydro-1,8-naphthyridin-4-yl)amino)benzyl)sulfamide dihydrochloride]	1000 to 10000
O=c1ccc2c(Nc3cc4c(cc3F)CNCC4)ccnc2[nH]1 [Example 86, 5-((7-fluoro-1,2,3,4-tetrahydroisoquinolin-6-yl)amino)-1,8-naphthyridin-2(1H)-one dihydrochloride]	1000 to 10000
NCc1cccc(-c2ccnc3[nH]c(=O)ccc23)c1 [Example 7, 5-(3-(aminomethyl)phenyl)-1,8-naphthyridin-2(1H)-one hydrochloride]	< 1000
CC(C)(N)c1ccc(-c2ccnc3[nH]c(=O)ccc23)cc1 [Example 16, 5-(4-(2-aminopropan-2-yl)phenyl)-1,8-naphthyridin-2(1H)-one hydrochloride]	1000 to 10000
Cn1c(=O)ccc2c(-c3ccc(CNS(N)(=O)=O)cc3)ccnc21 [Example 67, N-(4-(8-methyl-7-oxo-7,8-dihydro-1,8-naphthyridin-4-yl)benzyl)sulfamide]	< 1000
Cn1c(=O)ccc2c(-c3ccc(CN)cc3)ccnc21 [Example 29, 5-(4-(aminomethyl)phenyl)-1-methyl-1,8-naphthyridin-2(1H)-one hydrochloride]	1000 to 10000
NS(=O)(=O)NCc1ccc(F)c(Nc2ccnc3[nH]c(=O)ccc23)c1 [Example 91, N-(4-fluoro-3-((7-oxo-7,8-dihydro-1,8-naphthyridin-4-yl)amino)benzyl)sulfamide dihydrochloride]	< 1000
O=c1ccc2c(Nc3ccc4c(c3)CNCCC4)ccnc2[nH]1 [Example 87, 5-((2,3,4,5-tetrahydro-1H-benzo[c]azepin-8-yl)amino)-1,8-naphthyridin-2(1H)-one dihydrochloride]	> 10000
NS(=O)(=O)NC1Cc2ccc(Nc3ccnc4[nH]c(=O)ccc34)cc2C1 (centres unmarked) [Example 107, N-(5-((7-oxo-7,8-dihydro-1,8-naphthyridin-4-yl)amino)-2,3-dihydro-1H-inden-2-yl)sulfamide dihydrochloride]	< 1000
CN[C@@H](C)c1ccc(-c2ccnc3[nH]c(=O)ccc23)cc1 [Example 18, (S)-5-(4-(1-(methylaminoethyl)phenyl)-1,8-naphthyridin-2(1H)-one hydrochloride]	< 1000
